Laboratory results published in the supplement of paper PMC10307832.

Key:
Assay in all cases: relative viability (nuclei count vs DMSO), 5 days (fraction); higher = more cells survive
FG-4592 + Bortezomib = compound: Cc1nc(C(=O)NCC(=O)O)c(O)c2ccc(Oc3ccccc3)cc12 [FG-4592] + CC(C)C[C@H](NC(=O)[C@H](Cc1ccccc1)NC(=O)c1cnccn1)B(O)O [Bortezomib] (partner 0.002 µM)
How it was run: (§1)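 Five library-drug doses in √10 steps were combined with a fixed anchor-drug dose, or a single drug was given alone, by pin tool to lung cancer cell lines in 1536-well plates the day after seeding. Nuclei were stained and counted after 5 days. Relative viability is the nuclei count in treated wells over that in vehicle wells, taken as the median of duplicate plates.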

IU1-47 + Tozasertib = compound: CC1=CC(=C(N1C2=CC=C(C=C2)Cl)C)C(=O)CN3CCCCC3 [IU1-47] + Cc1cc(Nc2cc(N3CCN(C)CC3)nc(Sc3ccc(NC(=O)C4CC4)cc3)n2)n[nH]1 [Tozasertib] (partner 0.1 µM)
How it was run: as §1

FG-4592 + Foretinib = compound: Cc1nc(C(=O)NCC(=O)O)c(O)c2ccc(Oc3ccccc3)cc12 [FG-4592] + COc1cc2c(Oc3ccc(NC(=O)C4(C(=O)Nc5ccc(F)cc5)CC4)cc3F)ccnc2cc1OCCCN1CCOCC1 [Foretinib] (partner 0.25 µM)
How it was run: as §1

FG-4592 + Linsitinib = compound: Cc1nc(C(=O)NCC(=O)O)c(O)c2ccc(Oc3ccccc3)cc12 [FG-4592] + C[C@]1(O)C[C@@H](c2nc(-c3ccc4ccc(-c5ccccc5)nc4c3)c3c(N)nccn32)C1 [Linsitinib] (partner 1 µM)
How it was run: as §1

Cell Line	relative viability (FG-4592 + Bortezomib; first compound 0.08 µM)	relative viability (FG-4592 + Bortezomib; first compound 0.253 µM)	relative viability (FG-4592 + Bortezomib; first compound 0.8 µM)	relative viability (FG-4592 + Bortezomib; first compound 2.53 µM)	relative viability (FG-4592 + Bortezomib; first compound 8 µM)	relative viability (IU1-47 + Tozasertib; first compound 0.08 µM)	relative viability (IU1-47 + Tozasertib; first compound 0.253 µM)	relative viability (IU1-47 + Tozasertib; first compound 0.8 µM)	relative viability (IU1-47 + Tozasertib; first compound 2.53 µM)	relative viability (IU1-47 + Tozasertib; first compound 8 µM)	relative viability (FG-4592 + Foretinib; first compound 0.08 µM)	relative viability (FG-4592 + Foretinib; first compound 0.253 µM)	relative viability (FG-4592 + Foretinib; first compound 0.8 µM)	relative viability (FG-4592 + Foretinib; first compound 2.53 µM)	relative viability (FG-4592 + Foretinib; first compound 8 µM)	relative viability (FG-4592 + Linsitinib; first compound 0.08 µM)	relative viability (FG-4592 + Linsitinib; first compound 0.253 µM)	relative viability (FG-4592 + Linsitinib; first compound 0.8 µM)	relative viability (FG-4592 + Linsitinib; first compound 2.53 µM)	relative viability (FG-4592 + Linsitinib; first compound 8 µM)
NCI-H1437	0.537	0.581	0.63	0.458	0.378	0.413	0.396	0.396	0.398	0.347	1.24	1.19	1.29	1.3	1.04	0.995	0.976	0.99	0.95	0.786
NCI-H1651	0.834	0.826	1.02	0.893	0.856	0.717	0.58	0.753	0.72	0.762	0.863	0.773	0.88	0.901	0.839	0.986	0.998	0.915	1.09	0.815
NCI-H1666	0.839	0.843	0.705	0.701	0.537	0.563	0.548	0.593	0.575	0.595	0.907	0.865	0.939	0.963	0.837	0.781	0.884	0.769	0.831	0.677
NCI-H1734	0.743	0.956	0.861	0.838	0.951	0.299	0.252	0.264	–	0.235	0.792	0.812	0.806	0.884	0.75	0.896	0.814	0.716	0.875	0.927
NCI-H1755	0.918	1.01	0.907	1.02	0.998	0.583	0.687	0.612	0.631	0.563	0.907	0.905	0.857	0.929	0.921	0.993	0.961	0.963	1.04	1.06
NCI-H1915	0.933	0.922	0.95	0.884	1.01	0.472	0.467	0.499	–	0.359	1.09	1.06	1.22	1.12	1	1.06	1.07	1.19	1.11	1.07
NCI-H1975	0.369	0.318	0.34	0.4	0.307	0.925	0.85	0.719	0.882	0.487	0.986	0.949	1.07	0.956	0.833	1.01	0.902	1.01	0.96	0.752
NCI-H1993	1.12	0.828	1.06	1.25	0.894	0.525	0.619	0.645	0.602	0.54	0.783	0.582	0.781	0.828	0.747	0.808	0.646	0.713	0.728	0.706
NCI-H2009	1.02	0.934	0.948	0.826	0.882	0.782	0.781	0.751	0.77	0.662	1.21	1.11	1.13	1.14	1.11	1.19	1.08	1.28	1.21	1.19
NCI-H2023	1.07	0.924	0.664	0.763	0.679	0.329	0.363	0.366	0.349	0.291	0.792	0.79	0.885	0.854	0.742	0.611	0.575	0.646	0.77	0.685
NCI-H2085	0.998	1.02	1.01	0.963	1.06	0.903	0.79	0.705	0.835	0.774	0.837	0.696	0.927	0.784	0.881	0.804	0.861	0.758	0.878	0.815
NCI-H2087	0.775	0.864	0.983	0.832	0.789	0.225	0.224	0.287	–	0.241	1.19	1.02	1.21	1.07	1.11	0.865	0.713	1.13	0.878	1.14
NCI-H2126	1.09	1.1	1.12	1.12	1.13	0.905	0.866	0.818	–	0.737	1.14	1.13	1.16	1.09	1.15	0.68	0.73	0.593	0.699	0.655
NCI-H2228	0.928	0.872	0.786	1.1	0.737	0.267	0.303	0.246	0.198	0.249	0.672	0.744	0.945	0.854	0.717	0.586	0.628	0.795	0.612	0.727
NCI-H2347	–	0.623	0.806	0.782	1.14	0.561	0.518	0.632	0.51	0.445	–	0.618	0.885	0.857	1.04	1.09	–	0.822	0.927	1.01
NCI-H2405	0.906	0.894	0.998	0.922	0.952	0.753	0.801	0.755	0.735	0.692	0.962	–	1.03	1.02	1.14	–	0.583	0.884	0.801	0.72
NCI-H3122	1.03	1.02	1.13	1.07	1.07	0.442	0.423	0.371	0.46	0.331	0.957	0.952	0.934	0.993	0.921	0.95	1.03	1.07	1.02	0.816
